Laboratory results from article PMC7765401, “Antiproliferative and Antiangiogenic Properties of New VEGFR-2-targeting 2-thioxobenzo[g]quinazoline Derivatives (In Vitro)” (Molecules, 2020).
Several values for one entry are separate records, joined by “and”; a condition that tells them apart may be missing. Identical values can stand only once. Like-named read-outs stand apart in the source and are kept apart here.

Columns and labels:
HepG2 cells [1] = assay: Cell-cycle analysis by flow cytometry (PI), HepG2; assay type: cell-based, human; conditions: HepG2, 48 h at the IC50 of the compound
Method: (§1) To investigate whether the tested compounds could arrest HepG2 and MCF-7 mitotic cell division, cell distributions at cell-cycle phases were analyzed by flow cytometry following their treatment with the vehicle or the indicated compound at its IC50 concentration. Cells and samples were prepared as previously reported, and a PI (ab139418) Flow Cytometry Kit (Abcam, Cambridge, UK) was used in accordance with the manufacturer’s protocol. In brief, both HepG2 and MCF-7 cells were separate, plated into six-well plates at a density of 0.6 × 10^6 cells/well in DMEM growth medium supplemented with 10% FBS. Cells were incubated for 24 h at 37 °C and 5% CO2 prior to exposure to either the vehicle (DMSO) as the control or 13, 14, or 15, at their IC50 concentrations. […] All cells were incubated for 48 h, washed with cold PBS after being harvested to single-cell suspensions by trypsinization, and fixed with 70% ethanol. The fixed cells were rehydrated in PBS prior to being lysed in a prepared solution of PI, Triton X-100, and RNase. Finally, the cells were kept at 37 °C for 15 min and analyzed using a FACS Caliber flow cytometer (BD Biosciences and Co., Franklin Lakes, NJ, USA).

MCF-7 cells [2] = assay: Cell-cycle analysis by flow cytometry (PI), MCF-7; assay type: cell-based, human; conditions: MCF-7, 48 h at the IC50 of the compound
Method: as §1

[3] = test system: MCF-7 human cancer-cell line; assay: MTT antiproliferative assay, MCF-7; assay type: cell-based
Method: (§2) Selected compounds were evaluated in vitro for their antiproliferative activities against HepG2 and MCF-7 human cancer-cell lines using MTT assays. Cell viabilities and IC50 values were obtained and compared with those of the control, doxorubicin (Table 1).
(§3) The antiproliferative activity of the test compounds against HepG2, and MCF-7 human cancer-cell lines were evaluated by MTT assay. The detailed methodology procedure was reported. […]

HepG2 cells [4] = assay: Apoptosis by annexin-V FITC/PI double staining, HepG2; assay type: cell-based, human; conditions: HepG2, 48 h at the IC50 of the compound
Method: (§4) Apoptosis was detected for both HepG2 and MCF-7cells using the same preparation and sample treatment conditions as those used for cell-cycle analysis. The manufacturer’s instructions for the annexin-V FITC apoptosis detection kit (K101, Biovision, Milpitas, CA, USA) were followed. In brief, treated cells were detached after 48 h by trypsinization, washed twice with cold PBS, and stained with 5 μL of annexin-V fluorescein isothiocyanate (annexin-V FITC) and 5 μL of PI in the binding buffer for 15 min at 37 °C. Finally, the processed cells were analyzed using a FACS Caliber flow cytometer (BD Biosciences and Co., Franklin Lakes, NJ, USA).

MCF-7 cells [5] = assay: Apoptosis by annexin-V FITC/PI double staining, MCF-7; assay type: cell-based, human; conditions: MCF-7, 48 h at the IC50 of the compound
Method: as §4

[6] = test system: HepG2 human cancer-cell line; assay: MTT antiproliferative assay, HepG2; assay type: cell-based
Method: as §2, §3

VEGFR-2 (KDR) = molecular target: T1, VEGFR-2 (KDR) (Homo sapiens, UniProt P35968); assay: In vitro inhibition of VEGFR-2 (KDR) kinase assay kit; assay type: biochemical; conditions: for Fold Relative to Sorafenib: VEGFR-2 IC50 relative to sorafenib; for IC50: luminescence kinase kit, 0.0–10.0 μM range, read-out: IC50 nM, VEGFR-2 enzyme
T1 construct: purchased Cat. #40325
T1 sequence (P35968 20-1356): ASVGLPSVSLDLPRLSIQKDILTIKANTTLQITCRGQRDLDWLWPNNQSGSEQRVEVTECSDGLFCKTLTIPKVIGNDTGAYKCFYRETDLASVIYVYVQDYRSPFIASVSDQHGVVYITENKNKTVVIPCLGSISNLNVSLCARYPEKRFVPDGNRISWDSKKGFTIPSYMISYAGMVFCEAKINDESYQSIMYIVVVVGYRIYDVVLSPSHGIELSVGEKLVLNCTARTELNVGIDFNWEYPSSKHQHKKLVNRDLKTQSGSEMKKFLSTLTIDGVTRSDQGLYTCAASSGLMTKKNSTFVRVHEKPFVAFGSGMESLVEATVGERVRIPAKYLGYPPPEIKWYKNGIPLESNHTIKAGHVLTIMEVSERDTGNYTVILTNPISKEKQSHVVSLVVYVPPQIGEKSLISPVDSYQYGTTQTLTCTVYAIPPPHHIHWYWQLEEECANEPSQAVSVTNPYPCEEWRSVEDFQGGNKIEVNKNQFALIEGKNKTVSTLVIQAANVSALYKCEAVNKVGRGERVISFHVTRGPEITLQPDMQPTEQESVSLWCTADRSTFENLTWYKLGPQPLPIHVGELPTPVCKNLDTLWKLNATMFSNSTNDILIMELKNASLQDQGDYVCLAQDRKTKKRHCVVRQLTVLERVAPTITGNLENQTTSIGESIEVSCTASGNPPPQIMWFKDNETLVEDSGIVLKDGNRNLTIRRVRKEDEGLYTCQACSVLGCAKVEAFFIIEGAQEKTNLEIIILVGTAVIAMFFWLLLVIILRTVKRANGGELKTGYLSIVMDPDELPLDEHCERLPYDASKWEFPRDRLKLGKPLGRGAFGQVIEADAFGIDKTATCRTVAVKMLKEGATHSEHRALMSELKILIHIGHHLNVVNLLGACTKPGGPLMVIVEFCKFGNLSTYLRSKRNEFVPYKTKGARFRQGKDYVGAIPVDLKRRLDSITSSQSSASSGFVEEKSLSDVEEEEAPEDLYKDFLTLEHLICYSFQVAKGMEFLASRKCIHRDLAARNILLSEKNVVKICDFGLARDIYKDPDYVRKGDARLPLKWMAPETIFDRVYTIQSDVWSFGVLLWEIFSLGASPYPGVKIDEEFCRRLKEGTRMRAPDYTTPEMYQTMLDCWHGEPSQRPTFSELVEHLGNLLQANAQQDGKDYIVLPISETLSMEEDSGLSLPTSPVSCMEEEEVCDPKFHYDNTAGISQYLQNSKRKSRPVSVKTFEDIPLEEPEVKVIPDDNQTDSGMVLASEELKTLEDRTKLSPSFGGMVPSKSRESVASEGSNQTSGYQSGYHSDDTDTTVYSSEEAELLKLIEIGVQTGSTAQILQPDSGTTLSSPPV
Method: At the indicated end of the experiment, the luminescence was measured by a Tecan spark microplate reader.

[7] = MCF7, MTT, 48 h of exposure, read-out: IC50 (μM) ± SD MCF-7
[8] = MCF7, Table S5, read-out: pIC50 (exp) MCF7 (converted)
[9] = MTT, 48 h of exposure, read-out: IC50 (μM) ± SD HepG2
[10] = Table S5, read-out: pIC50(exp) HepG2 (converted)

Row | Structure (SMILES) | Cell Cycle Distribution %G0/G1 (HepG2 cells [1]) [%] | Cell Cycle Distribution %G2/M (HepG2 cells [1]) | Cell Cycle Distribution %S (HepG2 cells [1]) | Cell Cycle Distribution %G0/G1 (MCF-7 cells [2]) [%] | Cell Cycle Distribution %G2/M (MCF-7 cells [2]) | Cell Cycle Distribution %S (MCF-7 cells [2]) [%] | IC50 [3, 7] [µM] | IC50 [3, 8] [µM] | Apoptosis Early (HepG2 cells [4]) [%] | Apoptosis Late (HepG2 cells [4]) [%] | Apoptosis Total (HepG2 cells [4]) [%] | Necrosis (HepG2 cells [4]) [%] | Apoptosis Early (MCF-7 cells [5]) [%] | Apoptosis Late (MCF-7 cells [5]) [%] | Apoptosis Total (MCF-7 cells [5]) [%] | Necrosis (MCF-7 cells [5]) [%] | IC50 [6, 9] [µM] | IC50 [6, 10] [µM] | Fold Relative to Sorafenib (VEGFR-2 (KDR)) [fold] | IC50 (VEGFR-2 (KDR)) [nM] | further results
1 | CCn1c(SCCN2CCCCC2)nc2cc3ccccc3cc2c1=O [Compound 14, 3-Ethyl-2-((2-(piperidin-1-yl)ethyl)thio)benzo[g]quinazolin-4(3H)-one] | 38.66 | 9.03% | 52.3% and 52.31% | 66.24 | 6.58% | 27.18 | 9.6 ± 0.5 | 9.6 | 2.97 | 13.42 | 16.39 | 6.33 | 5.08 | 25.68 | 30.76 | 11.75 | 27.7 ± 2.5 | 27.7 | 2.0 | 63 ± 3.9 | melting point: 190 to 192 °C
2 | CCn1c(SCCCN2C(=O)c3ccccc3C2=O)nc2cc3ccccc3cc2c1=O [Compound 15, 2-(3-((3-Ethyl-4-oxo-3,4-dihydrobenzo[g]quinazolin-2-yl)thio)propyl)isoindoline-1,3-dione] | 31.15 | 39.2% and 39.24% | 29.61% | 43.25 | 28.0% and 28.03% | 28.72 | 9.4 ± 0.7 | 9.4 | 3.44 | 14.4 | 17.84 | 6.27 | 5.57 | 19.73 | 25.3 | 8.14 | 26 ± 2.5 | 28 | 1.4 | 44.4 ± 2.6 | –
